Reference: patent US11453703B2, “Heterotandem bicyclic peptide complexes” (BicycleTX Limited, priority 2018, dated 2022)

What follows are compounds tested against CD137 (Homo sapiens, UniProt Q07011) (assay: CD137 reporter assay, co-culture with PD-L1 expressing cell line RKO). Details: tumour target PD-L1, co-culture with RKO, 6 h.
Format: cell-based
Set-up: host or cells: Jurkat reporter cells
Procedure: Culture medium referred to as R1 media is prepared by adding 1% FBS to RPMI-1640 (component of Promega kit CS196005). Serial dilutions of test articles in R1 are prepared in a sterile 96 well-plate. Use 25 μl per well of test articles or R1 (as a background control) to designated wells in white cell culture plate. Tumour cells* are harvested and resuspended at a concentration of 400,000 cells/mL in R1 media. Twenty five (25) μL/well tumour cells are used in white cell culture plate. Jurkat cells (Promega kit CS196005, 0.5 mL) are thawed in the water bath and then added to 5 ml pre-warmed R1 medium. Twenty five (25) μL/well Jurkat cells are used in white cell culture plate. Incubate the cells and test articles for 6h at 37° C., 5% CO2. At the end of 6 h, add 75 μl/well Bio-Glo™ (Promega) and incubate for 10 min before reading luminescence in a plate reader (Clariostar, BMG). The fold change relative to cells (Jurkat cells+Cell line used in co-culture) is calculated and plotted in GraphPad Prism as log(agonist) vs response to determine EC50 (nM) and Fold Induction over background (Max)

Chain of CD137 (Q07011 24-255): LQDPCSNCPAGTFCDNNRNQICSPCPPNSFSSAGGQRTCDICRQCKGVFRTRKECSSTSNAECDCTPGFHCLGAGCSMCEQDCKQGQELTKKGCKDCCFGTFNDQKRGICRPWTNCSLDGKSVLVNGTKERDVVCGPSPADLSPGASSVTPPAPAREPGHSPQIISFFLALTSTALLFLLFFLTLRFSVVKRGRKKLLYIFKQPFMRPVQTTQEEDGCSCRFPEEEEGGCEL

| SMILES | EC50 [nM] | Fold Induction over Background [fold] |
| --- | --- | --- |
| CCCC[C@@H]1NC(=O)[C@H](Cc2ccc(O)cc2)NC(=O)[C@@H]2CCCN2C(=O)[C@H](CC(=O)O)NC(=O)[C@H](C)NC(=O)[C@H](Cc2ccccc2)NC(=O)[C@@H]2CSCCC(=O)N3CN(CN(C3)C(=O)CCSC[C@@H](C(=O)N[C@@H](CNC(=O)CCOCCOCCOCCOCCOCCOCCOCCOCCOCCOCCOCCOCCn3cc(CCC(=O)NCCC(=O)N(C)CC(=O)N(C)CC(=O)N(C)CC(=O)N(C)CC(=O)N(C)CC(=O)N(C)CC(=O)N(C)CC(=O)N(C)CC(=O)N(C)CC(=O)N(C)CC(=O)N[C@@H](CO)C(=O)N[C@@H](CC(=O)O)C(=O)N[C@@H](CCCCN)C(=O)N[C@H]4CSCCC(=O)N5CN6CN(C5)C(=O)CCSC[C@H](NC(=O)[C@H](CCSC)NC(=O)[C@H]([C@@H](C)O)NC(=O)[C@H](CC(C)C)NC(=O)[C@H](Cc5c[nH]c7ccccc57)NC(=O)CNC(=O)[C@H](C)NC(=O)[C@H](CO)NC4=O)C(=O)N[C@@H](CCC(N)=O)C(=O)N[C@@H](CCCCN)C(=O)N[C@@H](CC(C)C)C(=O)N[C@@H](Cc4c[nH]cn4)C(=O)N[C@@H](CC(C)C)C(=O)N[C@H](C(N)=O)CSCCC6=O)nn3)C(N)=O)NC1=O)C(=O)CCSC[C@H](NC(C)=O)C(=O)N[C@@H](CC(C)(C)C)C(=O)N1CCC[C@H]1C(=O)N[C@@H](CCC(=O)O)C(=O)N[C@H](C)C(=O)N1CCC[C@H]1C(=O)N[C@@H](Cc1ccc(O)cc1)C(=O)N2 [BCY10580] | 28 | 3 |
| CCCC[C@@H]1NC(=O)[C@H](Cc2ccc(O)cc2)NC(=O)[C@@H]2CCCN2C(=O)[C@H](CC(=O)O)NC(=O)[C@H](C)NC(=O)[C@H](Cc2ccccc2)NC(=O)[C@@H]2CSCCC(=O)N3CN(CN(C3)C(=O)CCSC[C@@H](C(=O)N[C@@H](CNC(=O)CCOCCOCCOCCOCCOCCOCCOCCOCCOCCOCCOCCOCCn3cc(CCC(=O)NCCCC[C@H](NC(=O)CN(C)C(=O)CN(C)C(=O)CN(C)C(=O)CN(C)C(=O)CN(C)C(=O)CN(C)C(=O)CN(C)C(=O)CN(C)C(=O)CN(C)C(=O)CN(C)C(=O)[C@@H]4CSCCC(=O)N5CN6CN(C5)C(=O)CCSC[C@H](NC(=O)[C@H](CCSC)NC(=O)[C@H]([C@@H](C)O)NC(=O)[C@H](CC(C)C)NC(=O)[C@H](Cc5c[nH]c7ccccc57)NC(=O)CNC(=O)[C@H](C)NC(=O)[C@H](CO)NC(=O)[C@@H](NC(=O)[C@H](CCCCN)NC(=O)[C@H](CC(=O)O)NC(=O)[C@@H](N)CO)CSCCC6=O)C(=O)N[C@@H](CCC(N)=O)C(=O)N[C@@H](CCCCN)C(=O)N[C@@H](CC(C)C)C(=O)N[C@@H](Cc5c[nH]cn5)C(=O)N[C@@H](CC(C)C)C(=O)N4)C(N)=O)nn3)C(N)=O)NC1=O)C(=O)CCSC[C@H](NC(C)=O)C(=O)N[C@@H](CC(C)(C)C)C(=O)N1CCC[C@H]1C(=O)N[C@@H](CCC(=O)O)C(=O)N[C@H](C)C(=O)N1CCC[C@H]1C(=O)N[C@@H](Cc1ccc(O)cc1)C(=O)N2 [BCY10581] | 18 | 6 |
| CCCC[C@@H]1NC(=O)[C@H](Cc2ccc(O)cc2)NC(=O)[C@@H]2CCCN2C(=O)[C@H](CC(=O)O)NC(=O)[C@H](C)NC(=O)[C@H](Cc2ccccc2)NC(=O)[C@@H]2CSCCC(=O)N3CN(CN(C3)C(=O)CCSC[C@@H](C(=O)N[C@@H](CNC(=O)CCOCCOCCOCCOCCOCCOCCOCCOCCOCCOCCOCCOCCn3cc(CCC(=O)NCCCC[C@@H]4NC(=O)[C@H](CCC(N)=O)NC(=O)[C@@H]5CSCCC(=O)N6CN(CN(C6)C(=O)CCSC[C@H](NC(=O)[C@H](CCCCN)NC(=O)[C@H](CC(=O)O)NC(=O)[C@@H](N)CO)C(=O)N[C@@H](CO)C(=O)N[C@@H](C)C(=O)NCC(=O)N[C@@H](Cc6c[nH]c7ccccc67)C(=O)N[C@@H](CC(C)C)C(=O)N[C@@H]([C@@H](C)O)C(=O)N[C@@H](CCSC)C(=O)N5)C(=O)CCSC[C@@H](C(N)=O)NC(=O)[C@H](CC(C)C)NC(=O)[C@H](Cc5c[nH]cn5)NC(=O)[C@H](CC(C)C)NC4=O)nn3)C(N)=O)NC1=O)C(=O)CCSC[C@H](NC(C)=O)C(=O)N[C@@H](CC(C)(C)C)C(=O)N1CCC[C@H]1C(=O)N[C@@H](CCC(=O)O)C(=O)N[C@H](C)C(=O)N1CCC[C@H]1C(=O)N[C@@H](Cc1ccc(O)cc1)C(=O)N2 [BCY10582] | 28 | 4 |
| CCCC[C@@H]1NC(=O)[C@H](Cc2ccc(O)cc2)NC(=O)[C@@H]2CCCN2C(=O)[C@H](CC(=O)O)NC(=O)[C@H](C)NC(=O)[C@H](Cc2ccccc2)NC(=O)[C@@H]2CSCCC(=O)N3CN(CN(C3)C(=O)CCSC[C@@H](C(=O)N[C@@H](C)C(N)=O)NC1=O)C(=O)CCSC[C@H](NC(C)=O)C(=O)N[C@@H](CC(C)(C)C)C(=O)N1CCC[C@H]1C(=O)N[C@@H](CCCCNC(=O)CCOCCOCCOCCOCCOCCOCCOCCOCCOCCOCCOCCOCCn1cc(CCC(=O)NCCCC[C@@H]3NC(=O)[C@H](CCC(N)=O)NC(=O)[C@@H]4CSCCC(=O)N5CN(CN(C5)C(=O)CCSC[C@@H](C(=O)N5CCC[C@H]5C(=O)N[C@@H](CO)C(=O)N[C@@H](Cc5c[nH]cn5)C(N)=O)NC(=O)[C@H](CC(C)C)NC(=O)[C@H](Cc5c[nH]cn5)NC(=O)[C@H](CC(C)C)NC3=O)C(=O)CCSC[C@H](NC(=O)[C@H](CCCCN)NC(=O)[C@H](CC(=O)O)NC(=O)[C@H](CO)NC(C)=O)C(=O)N[C@@H](CO)C(=O)N[C@@H](C)C(=O)NCC(=O)N[C@@H](Cc3c[nH]c5ccccc35)C(=O)N[C@@H](CC(C)C)C(=O)N[C@@H]([C@@H](C)O)C(=O)N[C@@H](CCSC)C(=O)N4)nn1)C(=O)N[C@H](C)C(=O)N1CCC[C@H]1C(=O)N[C@@H](Cc1ccc(O)cc1)C(=O)N2 [BCY11017] |  | 4 |
| CCCC[C@@H]1NC(=O)[C@H](Cc2ccc(O)cc2)NC(=O)[C@@H]2CCCN2C(=O)[C@H](CC(=O)O)NC(=O)[C@H](C)NC(=O)[C@H](Cc2ccccc2)NC(=O)[C@@H]2CSCCC(=O)N3CN(CN(C3)C(=O)CCSC[C@@H](C(=O)N[C@@H](C)C(N)=O)NC1=O)C(=O)CCSC[C@H](NC(C)=O)C(=O)N[C@@H](CC(C)(C)C)C(=O)N1CCC[C@H]1C(=O)N[C@@H](CCC(=O)O)C(=O)N[C@H](CCCCNC(=O)CCOCCOCCOCCOCCOCCOCCOCCOCCOCCOCCOCCOCCn1cc(CCC(=O)NCCCC[C@@H]3NC(=O)[C@H](CCC(N)=O)NC(=O)[C@@H]4CSCCC(=O)N5CN(CN(C5)C(=O)CCSC[C@@H](C(=O)N5CCC[C@H]5C(=O)N[C@@H](CO)C(=O)N[C@@H](Cc5c[nH]cn5)C(N)=O)NC(=O)[C@H](CC(C)C)NC(=O)[C@H](Cc5c[nH]cn5)NC(=O)[C@H](CC(C)C)NC3=O)C(=O)CCSC[C@H](NC(=O)[C@H](CCCCN)NC(=O)[C@H](CC(=O)O)NC(=O)[C@H](CO)NC(C)=O)C(=O)N[C@@H](CO)C(=O)N[C@@H](C)C(=O)NCC(=O)N[C@@H](Cc3c[nH]c5ccccc35)C(=O)N[C@@H](CC(C)C)C(=O)N[C@@H]([C@@H](C)O)C(=O)N[C@@H](CCSC)C(=O)N4)nn1)C(=O)N1CCC[C@H]1C(=O)N[C@@H](Cc1ccc(O)cc1)C(=O)N2 [BCY11018] |  | 7 |
| CCCC[C@@H]1NC(=O)[C@H](Cc2ccc(O)cc2)NC(=O)[C@@H]2CCCN2C(=O)[C@H](CC(=O)O)NC(=O)[C@H](C)NC(=O)[C@H](Cc2ccccc2)NC(=O)[C@@H]2CSCCC(=O)N3CN(CN(C3)C(=O)CCSC[C@@H](C(=O)N[C@@H](C)C(N)=O)NC1=O)C(=O)CCSC[C@H](NC(C)=O)C(=O)N[C@@H](CC(C)(C)C)C(=O)N1CCC[C@H]1C(=O)N[C@@H](CCCCNC(=O)Cn1cc(CCC(=O)NCCCC[C@@H]3NC(=O)[C@H](CCC(N)=O)NC(=O)[C@@H]4CSCCC(=O)N5CN(CN(C5)C(=O)CCSC[C@@H](C(=O)N5CCC[C@H]5C(=O)N[C@@H](CO)C(=O)N[C@@H](Cc5c[nH]cn5)C(N)=O)NC(=O)[C@H](CC(C)C)NC(=O)[C@H](Cc5c[nH]cn5)NC(=O)[C@H](CC(C)C)NC3=O)C(=O)CCSC[C@H](NC(=O)[C@H](CCCCN)NC(=O)[C@H](CC(=O)O)NC(=O)[C@H](CO)NC(C)=O)C(=O)N[C@@H](CO)C(=O)N[C@@H](C)C(=O)NCC(=O)N[C@@H](Cc3c[nH]c5ccccc35)C(=O)N[C@@H](CC(C)C)C(=O)N[C@@H]([C@@H](C)O)C(=O)N[C@@H](CCSC)C(=O)N4)nn1)C(=O)N[C@H](C)C(=O)N1CCC[C@H]1C(=O)N[C@@H](Cc1ccc(O)cc1)C(=O)N2 [BCY11376] |  | 9 |

Same assay, conditions: tumour target PD-L1, co-culture with RKO, 6 h; read-out: Fold Induction over Background

| SMILES | fold induction |
| --- | --- |
| CCCC[C@@H]1NC(=O)[C@H](Cc2ccc(O)cc2)NC(=O)[C@@H]2CCCN2C(=O)[C@H](CC(=O)O)NC(=O)[C@H](C)NC(=O)[C@H](Cc2ccccc2)NC(=O)[C@@H]2CSCCC(=O)N3CN(CN(C3)C(=O)CCSC[C@@H](C(=O)N[C@@H](CNC(=O)CCOCCOCCOCCOCCOCCOCCOCCOCCOCCOCCOCCOCCn3cc(CCC(=O)NCCCC[C@@H]4NC(=O)[C@H](CCC(N)=O)NC(=O)[C@@H]5CSCCC(=O)N6CN(CN(C6)C(=O)CCSC[C@@H](C(=O)N6CCC[C@H]6C(=O)N[C@@H](CO)C(=O)N[C@@H](Cc6c[nH]cn6)C(N)=O)NC(=O)[C@H](CC(C)C)NC(=O)[C@H](Cc6c[nH]cn6)NC(=O)[C@H](CC(C)C)NC4=O)C(=O)CCSC[C@H](NC(=O)[C@H](CCCCN)NC(=O)[C@H](CC(=O)O)NC(=O)[C@H](CO)NC(C)=O)C(=O)N[C@@H](CO)C(=O)N[C@@H](C)C(=O)NCC(=O)N[C@@H](Cc4c[nH]c6ccccc46)C(=O)N[C@@H](CC(C)C)C(=O)N[C@@H]([C@@H](C)O)C(=O)N[C@@H](CCSC)C(=O)N5)nn3)C(N)=O)NC1=O)C(=O)CCSC[C@H](NC(C)=O)C(=O)N[C@@H](CC(C)(C)C)C(=O)N1CCC[C@H]1C(=O)N[C@@H](CCC(=O)O)C(=O)N[C@H](C)C(=O)N1CCC[C@H]1C(=O)N[C@@H](Cc1ccc(O)cc1)C(=O)N2 [BCY11019] | 6 |
